# Measured values from patent publication US7858621B2 (Amorepacific Corporation, priority 2006, dated 2010).
# Biological target: T1, vanilloid receptor (Rattus norvegicus, UniProt O35433)
# T1 construct: DRG nerve cells from the primary culture of 2 days were equilibrated; endogenous in cells; host or cells: primary culture of dorsal root ganglion neurons from neonatal SD rats
# Experiment: 45Ca influx test in cultured neonatal rat DRG neurons, inhibition of capsaicin response
# Assay type: cell-based
# Details: neonatal rat DRG neurons, capsaicin 0.5 μM, 45Ca influx; read-out: Antagonist Calcium Uptake Test (IC50)
# Procedure, shortened: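 45Ca influx measured by scintillation counting of SDS-eluted neurons after 10 min at room temperature with test compound, 0.5 μM capsaicin (final) and 10 μCi/ml 45Ca in Ca/Mg-free HEPES-HBSS pH 7.4. Cells: primary DRG neurons from newborn SD rats, cultured 2 days with NGF and Ara-C.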
# T1 sequence (O35433 whole entry): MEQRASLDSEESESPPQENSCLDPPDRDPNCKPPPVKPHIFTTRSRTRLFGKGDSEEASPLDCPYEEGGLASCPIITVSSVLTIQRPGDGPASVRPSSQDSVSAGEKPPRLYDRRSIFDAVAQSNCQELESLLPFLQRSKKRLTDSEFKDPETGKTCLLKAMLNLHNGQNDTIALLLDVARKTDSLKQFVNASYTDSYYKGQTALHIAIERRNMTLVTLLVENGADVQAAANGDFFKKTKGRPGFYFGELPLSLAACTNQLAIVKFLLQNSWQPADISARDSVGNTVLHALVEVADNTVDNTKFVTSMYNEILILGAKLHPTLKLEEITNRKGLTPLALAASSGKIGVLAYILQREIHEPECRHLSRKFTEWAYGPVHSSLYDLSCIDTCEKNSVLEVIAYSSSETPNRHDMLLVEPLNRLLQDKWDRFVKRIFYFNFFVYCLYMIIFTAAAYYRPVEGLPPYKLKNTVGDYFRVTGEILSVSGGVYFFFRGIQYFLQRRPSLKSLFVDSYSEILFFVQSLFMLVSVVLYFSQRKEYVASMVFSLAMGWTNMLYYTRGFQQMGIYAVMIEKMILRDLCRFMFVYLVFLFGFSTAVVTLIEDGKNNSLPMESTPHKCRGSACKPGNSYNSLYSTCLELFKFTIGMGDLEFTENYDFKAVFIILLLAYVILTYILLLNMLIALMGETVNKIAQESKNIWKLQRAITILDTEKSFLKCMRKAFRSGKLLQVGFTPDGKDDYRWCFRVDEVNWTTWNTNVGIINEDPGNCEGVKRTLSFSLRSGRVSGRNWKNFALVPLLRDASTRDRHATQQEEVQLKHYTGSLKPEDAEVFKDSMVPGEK
row,Structure (SMILES),IC50
1,"C#Cc1cc(CNC(=O)/C=C/c2ccc(C(F)(F)F)nc2OC2CCOC2)cc(F)c1NS(C)(=O)=O (stereo not shown) [Example 79, 3-[2-(Tetrahydro-furan-3-yloxy)-6-trifluoromethyl-pyridin-3-yl]-N-(3-ethynyl-5-fluoro-4-methanesulfonylamino-benzyl)-acrylamide]",430 nM
2,"CS(=O)(=O)Nc1ccc(CNC(=O)/C=C/c2ccc(C(F)(F)F)nc2Sc2ccccc2)cc1F [Example 140, N-(3-fluoro-4-methanesulfonylamino-benzyl)-3-(2-phenylthio-6-trifluoromethyl-pyridin-3-yl)-acrylamide]",9700 nM
3,"CCCSc1nc(C(F)(F)F)ccc1/C=C/C(=O)NCc1ccc(NS(C)(=O)=O)c(C)c1 [Example 186, N-(4-Methanesulfonylamino-3-methyl-benzyl)-3-(2-propylthio-6-trifluoromethyl-pyridin-3-yl)-acrylamide]",510 nM
4,"CS(=O)(=O)Nc1ccc(CNC(=O)/C=C/c2ccc(C(F)(F)F)nc2N2CCOCC2)cc1F [Example 5, N-(3-Fluoro-4-methanesulfonylamino-benzyl)-3-(2-morpholin-4-yl-6-trifluoromethyl-pyridin-3-yl)-acrylamide]",1500 nM
5,"C#Cc1cc(CNC(=O)/C=C/c2cnc(OC)cc2C(F)(F)F)cc(F)c1NS(C)(=O)=O [Example 41, N-(3-Ethynyl-5-fluoro-4-methanesulfonylaminobenzyl)-3-(6-methoxy-4-trifluoromethylpyridin-3-yl)acrylamide]",1600 nM
6,CS(=O)(=O)Nc1ccc(CNC(=O)/C=C/c2ccc(Cl)nc2)cc1F [Examples 16],> 10000 nM
7,"CS(=O)(=O)Nc1c(F)cc(CNC(=O)/C=C/c2ccc(C(F)(F)F)nc2N2CCOCC2)cc1C#N [Example 103, N-(3-Cyano-5-fluoro-4-methanesulfonylamino-benzyl)-3-(2-morpholin-4-yl-6-trifluoromethyl-pyridin-3-yl)-acrylamide]",5900 nM
8,"COc1nc(C(F)(F)F)ccc1/C=C/C(=O)NCc1ccc(NS(C)(=O)=O)c(F)c1 [Example 60, N-(3-Fluoro-4-methanesulfonylamino-benzyl)-3-(2-methoxy-6-trifluoromethyl-pyridin-3-yl)-acrylamide]",2100 nM
9,"C#Cc1cc(CNC(=O)/C=C/c2ccc(C(F)(F)F)nc2COCC)cc(F)c1NS(C)(=O)=O [Example 161, N-(3-Ethynyl-5-fluoro-4-methanesulfonylamino-benzyl)-3-(2-ethoxymethyl-6-trifluoromethyl-pyridin-3-yl)-acrylamide]",550 nM
10,C#Cc1cc(CNC(=O)COc2ccc(C(C)(C)C)nc2)cc(F)c1NS(C)(=O)=O [Examples 34],> 10000 nM
11,"C#Cc1cc(CNC(=O)/C=C/c2ccc(C(F)(F)F)nc2-c2cccc(OC)c2)cc(F)c1NS(C)(=O)=O [Example 125, N-(3-Ethynyl-5-fluoro-4-methanesulfonylamino-benzyl)-3-[2-(3-methoxy-phenyl)-6-trifluoromethyl-pyridin-3-yl]-acrylamide]",> 1000 nM
12,"C#Cc1cc(CNC(=O)C=Cc2ccc(C(F)(F)F)nc2C#C)cc(F)c1NS(C)(=O)=O [Example 145, N-(3-Ethynyl-5-fluoro-4-methanesulfonylamino-benzyl)-3-(2-ethynyl-6-trifluoromethyl-pyridin-3-yl)-acrylamide]",1900 nM
13,"CS(=O)(=O)Nc1ccc(CNC(=O)COc2ccc(C(F)(F)F)nc2)cc1F [Example 32, N-(3-Fluoro-4-methanesulfonylamino-benzyl)-2-(6-trifluoromethyl-pyridin-3-yloxy)-acetamide]",> 10000 nM
14,CC(C)(C)c1ccc(/C=C/C(=O)NCc2ccc(NS(C)(=O)=O)c(F)c2)cn1 [Examples 1],1300 nM

# These reach a lower IC50. Values come first.
row,IC50,Structure (SMILES)
1,350 nM,"CCCCc1nc(C(F)(F)F)ccc1C#CC(=O)NCc1cc(F)c(NS(C)(=O)=O)c(F)c1 [Example 261, 3-(2-Butyl-6-trifluoromethyl-pyridin-3-yl)-propynoic acid 3,5-difluoro-4-methanesulfonylamino-benzylamide]"
2,280 nM,"CS(=O)(=O)Nc1ccc(CNC(=O)/C=C/c2ccc(C(F)(F)F)nc2NC2CCCC2)cc1F [Example 89, 3-(2-Cyclopentylamino-6-trifluoromethyl-pyridin-3-yl)-N-(3-fluoro-4-methanesulfonylamino-benzyl)-acrylamide]"
3,270 nM,"C#Cc1cc(CNC(=O)/C=C/c2ccc(C(F)(F)F)nc2N(C)CCC)cc(F)c1NS(C)(=O)=O [Example 159, N-(3-Ethynyl-5-fluoro-4-methanesulfonylamino-benzyl)-3-[2-(N-methyl-N-propyl-amino)-6-trifluoromethyl-pyridin-3-yl]-acrylamide]"
4,240 nM,"C#Cc1cc(CNC(=O)/C=C/c2ccc(C(F)(F)F)nc2OCC(F)(F)F)cc(F)c1NS(C)(=O)=O [Example 84, N-(3-Ethynyl-5-fluoro-4-methansulfonylamino-benzyl)-3-[2-(2,2,2-trifluoro-ethoxy)-6-trifluoromethyl-pyridin-3-yl]-acrylamide]"
5,220 nM,"Cc1cc(CNC(=O)/C=C/c2ccc(C(F)(F)F)nc2NCc2ccccc2)ccc1NS(C)(=O)=O [Example 191, 3-(2-Benzylamino-6-trifluoromethyl-pyridin-3-yl)-N-(4-methanesulfonylamino-3-methyl-benzyl)-acrylamide]"
6,150 nM,"CCCCc1nc(C(F)(F)F)ccc1C#CC(=O)N[C@H](C)c1cc(F)c(NS(C)(=O)=O)c(F)c1 [Example 262, 3-(2-Butyl-6-trifluoromethyl-pyridin-3-yl)-propynoic acid [1-(3,5-difluoro-4-methanesulfonylamino-phenyl)-ethyl]-amide]"
7,150 nM,"CC(C)Cc1nc(C(F)(F)F)ccc1/C=C/C(=O)NCc1cc(F)c(NS(C)(=O)=O)c(C#N)c1 [Example 163, N-(3-Cyano-5-fluoro-4-methanesulfonylamino-benzyl)-3-(2-isobutyl-6-trifluoromethyl-pyridin-3-yl)-acrylamide]"
8,150 nM,"CC(C)Oc1nc(C(F)(F)F)ccc1/C=C/C(=O)NCc1cc(F)c(NS(C)(=O)=O)c(C#N)c1 [Example 109, N-(3-Cyano-5-fluoro-4-methanesulfonylamino-benzyl)-3-(2-isopropoxy-6-trifluoromethyl-pyridin-3-yl)-acrylamide]"
9,120 nM,"C[C@@H](NC(=O)/C=C/c1ccc(C(F)(F)F)nc1N1CCCCC1)c1cc(F)c(NS(C)(=O)=O)c(F)c1 [Example 239, (R)—N-[1-(3,5-Difluoro-4-methanesulfonylamino-phenyl)-ethyl]-3-(2-piperid-1-yl-6-trifluoromethyl-pyridin-3-yl)-acrylamide]"
10,96 nM,"C[C@@H](NC(=O)/C=C/c1ccc(C(F)(F)F)nc1CCc1ccccc1)c1ccc(NS(C)(=O)=O)c(F)c1 [Example 237, (R)—N-[1-(3-Fluoro-4-methanesulfonylamino-phenyl)-ethyl]-3-(2-phenethyl-6-trifluoromethyl-pyridin-3-yl)-acrylamide]"
11,83 nM,"Cc1cc(CNC(=O)/C=C/c2ccc(C(F)(F)F)nc2CC(C)C)cc(F)c1NS(C)(=O)=O [Example 164, N-(3-Fluoro-4-methanesulfonylamino-5-methyl-benzyl)-3-(2-isobutyl-6-trifluoromethyl-pyridin-3-yl)-acrylamide]"
12,76 nM,"C#Cc1cc(CNC(=O)/C=C/c2ccc(C(F)(F)F)nc2NCc2ccccc2)cc(F)c1NS(C)(=O)=O [Example 196, 3-(2-Benzylamino-6-trifluoromethyl-pyridin-3-yl)-N-(3-ethynyl-5-fluoro-4-methanesulfonylamino-benzyl)-acrylamide]"
13,73 nM,"Cc1cc(CNC(=O)/C=C/c2ccc(C(F)(F)F)nc2NC(C)C)ccc1NS(C)(=O)=O [Example 219, 3-(2-Isopropylamino-6-trifluoromethyl-pyridin-3-yl)-N-(4-methanesulfonylamino-3-methyl-benzyl)-acrylamide]"
14,69 nM,"Cc1cc(CNC(=O)/C=C/c2ccc(C(F)(F)F)nc2CCc2ccccc2)ccc1NS(C)(=O)=O [Example 172, N-(4-Methanesulfonylamino-3-methyl-benzyl)-3-(2-phenethyl-6-trifluoromethyl-pyridin-3-yl)-acrylamide]"
15,49 nM,"CCCc1nc(C(F)(F)F)ccc1/C=C/C(=O)NCc1ccc(NS(C)(=O)=O)c(C)c1 [Example 208, N-(4-Methanesulfonylamino-3-methyl-benzyl)-3-(2-propyl-6-trifluoromethyl-pyridin-3-yl)-acrylamide]"
16,41 nM,"CC(C)c1nc(C(F)(F)F)ccc1/C=C/C(=O)N[C@H](C)c1ccc(NS(C)(=O)=O)c(F)c1 [Example 234, (R)—N-[1-(3-Fluoro-4-methanesulfonylamino-phenyl)-ethyl]-3-(2-isopropyl-6-trifluoromethyl-pyridin-3-yl)-acrylamide]"
17,35 nM,"C#Cc1cc(CNC(=O)/C=C/c2ccc(C(F)(F)F)nc2CCc2ccccc2)cc(F)c1NS(C)(=O)=O [Example 142, N-(3-Ethynyl-5-fluoro-4-methanesulfonylamino-benzyl)-3-(2-phenethyl-6-trifluoromethyl-pyridin-3-yl)-acrylamide]"
18,21 nM,"CCNc1nc(C(F)(F)F)ccc1/C=C/C(=O)NCc1cc(C)c(NS(C)(=O)=O)c(F)c1 [Example 258, 3-(2-Ethylamino-6-trifluoromethyl-pyridin-3-yl)-N-(3-fluoro-4-methanesulfonylamino-5-methyl-benzyl)-acrylamide]"
19,16 nM,"CCCNc1nc(C(F)(F)F)ccc1/C=C/C(=O)N[C@H](C)c1ccc(NS(C)(=O)=O)c(F)c1 [Example 224, (R)—N-[1-(3-Fluoro-4-methanesulfonylamino-phenyl)-ethyl]-3-(2-propylamino-6-trifluoromethyl-pyridin-3-yl)-acrylamide]"
20,15 nM,"CCCNc1nc(C(F)(F)F)ccc1/C=C/C(=O)N[C@H](C)c1cc(F)c(NS(C)(=O)=O)c(F)c1 [Example 229, (R)—N-[1-(3,5-Difluoro-4-methanesulfonylamino-phenyl)-ethyl]-3-(2-propylamino-6-trifluoromethyl-pyridin-3-yl)-acrylamide]"
